What all share (conditions): Homo sapiens
The subject of assay [1] is A549. The assay is described as follows: Inhibitory concentration (resynthesized pure material) against TNF-alpha induced apoptosis of A549 cells. The class given is functional, cell-based.
Assay [2] deals with A549. The assay is described as follows: Inhibitory concentration (solid phase) against TNF-alpha induced apoptosis of A549 cells. The class given is functional, cell-based.
In assay [3] the test system is A549. Kind of assay: Inhibitory concentration (resynthesized pure material) against TNF-alpha induced apoptosis of A549 cells at 20 uM. The class given is functional.

Results on 4 molecules are retold here after ChEMBL document CHEMBL1146628, “Identification of TNF-alpha inhibitors from a split-pool library based on a tyrosine-proline peptidomimetic scaffold” (Bioorg Med Chem Lett, 2003).

Each structure is given as a SMILES string.

In the assay with A549 [1], `CCCCCN(CCCCC)C(=O)[C@@H]1C[C@H](Oc2ccc(C[C@H](NC(=O)C(CC)CC)C(N)=O)cc2)CN1C(=O)c1cnc2ccccc2c1` registered an IC50 of 10.1 µM.
`CCCCCN(CCCCC)C(=O)[C@@H]1C[C@H](Oc2ccc(C[C@H](NC(=O)Cc3ccccc3)C(N)=O)cc2)CN1C(=O)c1cnc2ccccc2c1`: the results for the IC50 in the assay on A549 [2] and in the assay with A549 [1] were 11.1 µM and 8.1 µM, respectively.
In the same order, the values of `CCCCCN(CCCCC)C(=O)[C@@H]1C[C@H](Oc2ccc(C[C@H](NC(=O)c3cnc4ccccc4c3)C(N)=O)cc2)CN1C(=O)c1cnc2ccccc2c1` are 15.4 µM and 12.9 µM.
Molecule `CCCCCN(CCCCC)C(=O)[C@@H]1C[C@H](Oc2ccc(C[C@H](NC(=O)CC)C(N)=O)cc2)CN1C(=O)c1cnc2ccccc2c1` showed an inhibition at 20 µM with A549 [3] of 35%.
